This is an account of results in US6669951B2, “Compositions and methods for enhancing drug delivery across and into epithelial tissues” (CellGate, Inc., priority 1999, dated 2003).

Peptide text beside a SMILES is read from it. * marks the point of attachment. FITC = O=C1OC2(c3ccc(O)cc3Oc3cc(O)ccc32)c2ccc(NC(=S)*)cc21; Ahx = NCCCCCC(=O)O

Assay [1] has as its system Jurkat cells. The assay can be described thus: FACS cellular uptake assay. Format: cell-based, human. As to conditions: for cellular uptake relative to Tat49-57: Jurkat cells, 2% FCS; for additional loss of intracellular fluorescence from the one amino acid truncated analogs: further deletion of one residue. Here is the method: (§1) The accuracy of this method for determining concentration was established by weighing selected samples and dissolving them in a known amount of PBS buffer. The concentrations determined by UV spectroscopy correlated with the amounts weighed out manually. Jurkat cells (human T cell line), murine B cells (CH27), or human PBL cells were grown in 10% fetal calf serum and DMEM and each of these were used for cellular uptake experiments. […] The microtiter plates were centrifuged and the cells were isolated, washed with cold PBS (3×250 μL), incubated with 0.05% trypsin/0.53 mM EDTA at 37° C. for 5 min, washed with cold PBS, and resuspended in PBS containing 0.1% propidium iodide. The cells were analyzed using fluorescent flow cytometry (FACScan, Becton Dickinson) and cells staining with propidium iodide were excluded from the analysis. The data presented is the mean fluorescent signal for the 5000 cells collected.
Inhibition of Cellular Uptake with Sodium Azide. The assays were performed as previously described with the exception that the cells used were preincubated for 30 min with 0.5% sodium azide in 2% FCS/PBS buffer prior to the addition of fluorescent peptides and the cells were washed with 0.5% sodium azide in PBS buffer. All of the cellular uptake assays were run in parallel in the presence and absence of sodium azide.
To determine the structural requirements for the cellular uptake of short arginine-rich peptides, a series of fluorescently-labeled truncated analogues of Tat49-57 were synthesized using standard solid-phase chemistry. See, e.g., Atherton, E. et al. SOLID-PHASE PEPTIDE […] (IRL: Oxford, Engl. 1989). A fluorescein moiety was attached via an aminohexanoic acid spacer on the amino termini. The ability of these fluorescently labeled peptides to enter Jurkat cells was then analyzed using fluorescent activated cell sorting (FACS). The peptide constructs tested were Tat49-57 (Fl-ahx-[…]; SEQ ID NO:8): Tat49-56 (Fl-ahx-[…]; SEQ ID NO:9), Tat49-55 (Fl-ahx-RKKRRQR; SEQ ID NO: 10), Tat50-57 (Fl-ahx-[…]; SEQ ID NO: 11), and Tat51-57 (Fl-ahx-KRRQRRR; SEQ ID NO: 12). Differentiation between cell surface binding and internalization was accomplished throughout by running a parallel set of assays in the presence and absence of sodium azide. Because sodium azide inhibits energy-dependent cellular uptake but not cell surface binding, the difference in fluorescence between the two assays provided the amount of fluorescence resulting from internalization.

In assay [2] the test system is ear inflammation in Balb/c mice. The assay can be described thus: Murine contact dermatitis (DNFB), ear inflammation. It counts as in vivo, mouse. Here is the method:
Balb/c (6-7 weeks) mice were painted on the abdomen with 100 μl of 0.7% DNFB in acetone olive oil (95:5). Three days later both ears of the animals were restimulated with 0.5% DNFB in acetone. […] Ear inflammation was measured 24 hours after restimulation using a spring loaded caliper. The percent reduction of inflammation was calculated using the following formula […], where t=thickness of the treated ear, n=the thickness of a normal untreated ear, and u=thickness of an inflamed ear without any treatment. N=20 animals in each group.

Assay [3] concerns Jurkat cells. The assay can be described thus: Cellular uptake kinetics assay (Michaelis-Menton). Format: cell-based, human. On the set-up: Vmax: unit not given here. As to conditions: for Km / Vmax / rate of entering cells, fold faster than Tat47-59: Jurkat cells; for Km / Vmax: incubation 30, 60, 120, 240 seconds, 3° C.; for rate of entering cells, fold faster than Tat47-59: from Km values. Here is the method: as §1
Cellular Uptake Kinetics Assay. The assays were performed as previously described except the cells were incubated for 0.5, 1, 2, and 4 min at 4° C. in triplicate in 2% FCS/PBS (50 μl) in microtiter plates (96 well). The reactions were quenched by diluting the samples into 2% FCS/PBS (5 mL). The assays were then worked up and analyzed by fluorescent flow cytometry as previously described.
The rates of cellular uptake were determined after incubation (3° C.) of the peptides in Jurkat cells for 30, 60, 120, and 240 seconds (Table 1).

As to `C[C@H](NC(=O)[C@H](CCCNC(=N)N)NC(=O)[C@H](CCCNC(=N)N)NC(=O)[C@H](CCCCN)NC(=O)[C@H](CCCCN)NC(=O)[C@H](CCCNC(=N)N)NC(=O)CCCCCNC(=S)Nc1ccc2c(c1)C(=O)OC21c2ccc(O)cc2Oc2cc(O)ccc21)C(=O)N[C@@H](CCCNC(=N)N)C(=O)N[C@@H](CCCNC(=N)N)C(=O)N[C@@H](CCCNC(=N)N)C(N)=O` [A-54] ({FITC-Ahx}-RKKRRARRR-NH2), the “cellular uptake relative to Tat49-57” value with Jurkat cells [1] is recorded as “modest decrease in cellular internalization”.

Consider “R7 (SEQ ID NO:3): heptamer that consists of L-arginine residues; SEQ ID NO:3 (RRRRRRR)”, for which the “reduction in ear inflammation” value in assay [2] (1% topical, 1, 5 and 20 h after restimulation, measured 24 hours) is “No reduction of inflammation was observed”.

Consider `CC1(C)O[C@@H]2C[C@H]3[C@@H]4CCC5=CC(=O)C=C[C@]5(C)[C@@]4(F)[C@@H](O)C[C@]3(C)[C@]2(C(=O)CO)O1` [triamcinolone acetonide, reference compound], for which, in assay [2] (0.1% topical), the “reduction in ear inflammation” value is recorded as 34.1%±6.3.

For orientation: Km means the concentration of substrate that gives half-maximal velocity. As to `N=C(N)NCCC[C@H](NC(=O)[C@H](CCCNC(=N)N)NC(=O)[C@H](CCCNC(=N)N)NC(=O)[C@H](CCC(N)=O)NC(=O)[C@H](CCCNC(=N)N)NC(=O)[C@H](CCCNC(=N)N)NC(=O)[C@H](CCCCN)NC(=O)[C@H](CCCCN)NC(=O)[C@H](CCCNC(=N)N)NC(=O)CCCCCNC(=S)Nc1ccc2c(c1)C(=O)OC21c2ccc(O)cc2Oc2cc(O)ccc21)C(N)=O` [Tat49-57, reference compound], in the assay on Jurkat cells [3], the Km turned out to be 770 µM and the Vmax is recorded as 0.38. Further, in the assay with Jurkat cells [1], the “cellular uptake relative to Tat49-57” value was “between that of R6 and R7”.

As for `N=C(N)NCCC[C@@H](NC(=O)[C@@H](CCCNC(=N)N)NC(=O)[C@@H](CCCNC(=N)N)NC(=O)[C@@H](CCC(N)=O)NC(=O)[C@@H](CCCNC(=N)N)NC(=O)[C@@H](CCCNC(=N)N)NC(=O)[C@@H](CCCCN)NC(=O)[C@@H](CCCCN)NC(=O)[C@@H](CCCNC(=N)N)NC(=O)CCCCCNC(=S)Nc1ccc2c(c1)C(=O)OC21c2ccc(O)cc2Oc2cc(O)ccc21)C(N)=O` [d-Tat49-57, F1-ahx-rkkrrqrrr], in the assay with Jurkat cells [1], the “cellular uptake relative to Tat49-57” value is on record as “more effective at entering Jurkat cells then Tat49-57”.

On to `N=C(N)NCCC[C@H](NC(=O)[C@H](CCCNC(=N)N)NC(=O)[C@H](CCCNC(=N)N)NC(=O)[C@H](CCCNC(=N)N)NC(=O)[C@H](CCCNC(=N)N)NC(=O)[C@H](CCCNC(=N)N)NC(=O)[C@H](CCCNC(=N)N)NC(=O)[C@H](CCCNC(=N)N)NC(=O)[C@H](CCCNC(=N)N)NC(=O)CCCCCNC(=S)Nc1ccc2c(c1)C(=O)OC21c2ccc(O)cc2Oc2cc(O)ccc21)C(N)=O` (single isomer, unassigned) [R9], for which the “Km values fold greater / fold better than Tat49-57” value in the assay on Jurkat cells [3] (Discussion) was 30 fold. For the same molecule, in the assay with Jurkat cells [3], the Km amounted to 44 µM; the Vmax turned out to be 0.37; the “rate of entering cells, fold faster than Tat47-59” value is listed as approximately 20 fold.

With `N=C(N)NCCC[C@H](NC(=O)[C@H](CCCCN)NC(=O)[C@H](CCCCN)NC(=O)[C@H](CCCNC(=N)N)NC(=O)[C@H](CCCNC(=N)N)NC(=O)[C@H](CCC(N)=O)NC(=O)[C@H](CCCNC(=N)N)NC(=O)[C@H](CCCNC(=N)N)NC(=O)[C@H](CCCNC(=N)N)NC(=O)CCCCCNC(=S)Nc1ccc2c(c1)C(=O)OC21c2ccc(O)cc2Oc2cc(O)ccc21)C(N)=O` [Tat57-49], the “cellular uptake relative to Tat49-57” value with Jurkat cells [1] is “more effective at entering Jurkat cells then Tat49-57”.

Consider `N=C(N)NCCC[C@@H](NC(=O)[C@@H](CCCCN)NC(=O)[C@@H](CCCCN)NC(=O)[C@@H](CCCNC(=N)N)NC(=O)[C@@H](CCCNC(=N)N)NC(=O)[C@@H](CCC(N)=O)NC(=O)[C@@H](CCCNC(=N)N)NC(=O)[C@@H](CCCNC(=N)N)NC(=O)[C@@H](CCCNC(=N)N)NC(=O)CCCCCNC(=S)Nc1ccc2c(c1)C(=O)OC21c2ccc(O)cc2Oc2cc(O)ccc21)C(N)=O` [d-Tat57-49, F1-ahx-rrrqrrkkr], for which the “cellular uptake relative to Tat49-57” value with Jurkat cells [1] is reported as “more effective at entering Jurkat cells then Tat49-57”.

Regarding `N=C(N)NCCC[C@H](NC(=O)[C@H](CCCNC(=N)N)NC(=O)[C@H](CCCNC(=N)N)NC(=O)[C@H](CCC(N)=O)NC(=O)[C@H](CCCNC(=N)N)NC(=O)[C@H](CCCNC(=N)N)NC(=O)[C@H](CCCCN)NC(=O)CCCCCNC(=S)Nc1ccc2c(c1)C(=O)OC21c2ccc(O)cc2Oc2cc(O)ccc21)C(N)=O` [Tat51-57, Fl-ahx-KRRQRRR] ({FITC-Ahx}-KRRQRRR-NH2), the “additional loss of intracellular fluorescence from the one amino acid truncated analogs” value in the assay with Jurkat cells [1] is “did not further diminish the amount of internalization”.

As for `CC[C@H](C)[C@H](NC(=O)[C@H](CCCCN)NC(=O)[C@@H](NC(=O)[C@H](CCC(N)=O)NC(=O)[C@H](CCCNC(=N)N)NC(=O)CCCCCNC(=S)Nc1ccc2c(c1)C(=O)OC21c2ccc(O)cc2Oc2cc(O)ccc21)[C@@H](C)CC)C(=O)N[C@@H](Cc1c[nH]c2ccccc12)C(=O)N[C@@H](Cc1ccccc1)C(=O)N[C@@H](CCC(N)=O)C(=O)N[C@@H](CC(N)=O)C(=O)N[C@@H](CCCNC(=N)N)C(=O)N[C@@H](CCCNC(=N)N)C(=O)N[C@@H](CCSC)C(=O)N[C@@H](CCCCN)C(=O)N[C@@H](Cc1c[nH]c2ccccc12)C(=O)N[C@@H](CCCCN)C(=O)N[C@@H](CCCCN)C(N)=O` [Antennapedia43-58, reference compound], in the assay with Jurkat cells [3], the Km was 427 µM; the Vmax is 0.41; the “rate of entering cells, fold faster than Tat47-59” value is listed as “approximately 2 fold”.

Regarding `N=C(N)NCCC[C@H](NC(=O)[C@H](CCC(N)=O)NC(=O)[C@H](CCCNC(=N)N)NC(=O)[C@H](CCCNC(=N)N)NC(=O)[C@H](CCCCN)NC(=O)[C@H](CCCCN)NC(=O)[C@H](CCCNC(=N)N)NC(=O)CCCCCNC(=S)Nc1ccc2c(c1)C(=O)OC21c2ccc(O)cc2Oc2cc(O)ccc21)C(N)=O` [Tat49-55, Fl-ahx-RKKRRQR] ({FITC-Ahx}-RKKRRQR-NH2), the “additional loss of intracellular fluorescence from the one amino acid truncated analogs” value in the assay on Jurkat cells [1] worked out at 60%.
